In brackets after ≈: the same amount, converted by molar mass. Several values for one entry are separate records, joined by “and”; a condition that tells them apart may be missing. Equal values may be shown once.
Experiments:
Assay type in all cases: cell-based, Staphylococcus aureus
[1] = system: Staph aureus 1146; assay: MIC in Mueller-Hinton Broth with 50% pooled inactivated human serum, Assay 1, Table 12; conditions: for MIC, column C: Staph aureus 1146, Assay 1, 50% human serum
Method in brief: (§1)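 CLSI microdilution (M7-A7; M100-S16 interpretation); DMSO stocks at 10 mg/ml; endpoint = no macroscopically visible growth; MIC μg/ml, geometric mean if run more than once.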

[2] = system: Staph aureus 2811; assay: MIC, microtiter broth dilution (CLSI M7-A7), Assay 1, Table 12 column D, no serum; conditions: for MIC, column D: Staph aureus 2811, Assay 1, no serum
Method in brief: as §1

[3] = system: Staph aureus 1031; assay: MIC, microtiter broth dilution (CLSI M7-A7), Assay 2, Table 12 column F, no serum; conditions: for MIC, column F: Staph aureus 1031, Assay 2, no serum; for MIC: Staphylococcus aureus, 1031, Staph aureus 1031, Assay 2, no serum
Protocol: (§2) The assays described herein include a panel of bacterial isolates of Staphylococcus aureus. Assay 1 comprises the strains noted in Columns A through E, and Assay 2 comprises the strains noted in Columns F through H. The assays are performed in microtiter trays according to Methods for Dilution Antimicrobial Susceptibility Tests for Bacteria that Grow Aerobically; Approved Standard-7th edition (M7-A7) and interpreted according to the Performance Standards for Antimicrobial Susceptibility Testing; 16th Informational Supplement (M100-S16) published by Clinical Laboratory Standards Institute (CLSI). The antibacterial activity is presented in the form of a minimum inhibitory concentration (MIC) value in μg/ml format. The MIC value represents the lowest concentration of drug measured which prevented macroscopically visible growth under the conditions and specific doses tested. The compounds were initially dissolved in DMSO as 30 mM stocks and diluted accordingly to adjust to a concentration of 10 mg/ml or the compounds were dissolved in DMSO at a concentration of 10 mg/ml. For assessment of activity in the presence of human serum, S. aureus 1146 and S. aureus 1031 were inoculated into Mueller-Hinton Broth with 50% pooled inactivated human serum. In some cases, compounds were tested more than once in a particular assay. Where noted, the MIC value shown in Table 12 represents the geometric mean of the data from multiple runs.
(§3) It should be understood that the data in columns A-H represents MIC data in μg/ml and the notation “<=” means ‘less than or equal to’.

[4] = system: Staph aureus 1095 MRSA; assay: MIC, microtiter broth dilution (CLSI M7-A7), Assay 1, Table 12 column A, no serum; conditions: Assay 1, no serum; for MIC: Staphylococcus aureus, MRSA
Method in brief: as §1

[5] = system: Staph aureus 1146; assay: MIC, microtiter broth dilution (CLSI M7-A7), Assay 1, Table 12 column B, no serum; conditions: for MIC, column B: Staph aureus 1146, Assay 1, no serum
Method in brief: as §1

[6] = system: Staph aureus 1031; assay: MIC in Mueller-Hinton Broth with 50% pooled inactivated human serum, Assay 2, Table 12 column G; conditions: for MIC, column G: Staph aureus 1031, Assay 2, 50% human serum; for MIC: Staphylococcus aureus, 1031, Staph aureus 1031, Assay 2, 50% human serum
Protocol: as §2, §3

[7] = system: Staph aureus 2812; assay: MIC, microtiter broth dilution (CLSI M7-A7), Assay 1, Table 12 column E, no serum; conditions: for MIC, column E: Staph aureus 2812, Assay 1, no serum; for MIC: Staphylococcus aureus, 2812, Staph aureus 2812, Assay 1, no serum
Method in brief: as §1

[8] = system: Staph aureus 2810; assay: MIC, microtiter broth dilution (CLSI M7-A7), Assay 2, Table 12 column H, no serum; conditions: for MIC, column H: Staph aureus 2810, Assay 2, no serum; for MIC: Staphylococcus aureus, 2810, Staph aureus 2810, Assay 2, no serum
Protocol: as §2, §3

Row | Compound | MIC, column C [1] | MIC, column D [2] | MIC, column F [3] | MIC, column A [4] [µg/mL] | MIC, column B [5] | MIC, column G [6] [µg/mL] | MIC, column E [7] [µg/mL] | MIC, column H [8] | MIC ([1]; Staphylococcus aureus, 1146, Staph aureus 1146, Assay 1, 50% human serum, read-out: MIC, column C) [µg/mL] | MIC ([2]; Staphylococcus aureus, 2811, Staph aureus 2811, Assay 1, no serum) [µg/mL] | MIC [3] [µg/mL] | MIC [4] [µg/mL] | MIC ([5]; Staphylococcus aureus, 1146, Staph aureus 1146, Assay 1, no serum) [µg/mL] | MIC [6] [µg/mL] | MIC [7] [µg/mL] | MIC [8] [µg/mL]
1 | 4-{[2-(3-chloro-6-methoxyquinolin-4-yl)ethyl]amino}-1-[(2-phenylcyclopropyl)ethyl]zepane-4-carboxylic acid [Example 151] | 32 µg/mL | 2 µg/mL | 2 µg/mL | 8 | 4 µg/mL | 64 | 4 | 2 µg/mL |  |  |  |  |  |  |  | 
2 | 4-{[2-(3-chloro-6-methoxyquinolin-4-yl)ethyl]mino}-1-(3-phenylcyclobutyl) azepane-4-carboxylic acid [Example 152] | 1 µg/mL and 2 µg/mL | <=.0625 μg/ml | <=.0625 μg/ml |  | 0.125 µg/mL | 2 |  | 0.125 µg/mL |  |  |  |  |  |  |  | 
3 | COC(=O)[C@H]1CN(C[C@@H]2C[C@H]2c2ccccc2)CC[C@H]1CCC(O)c1ccnc2ccc(OC)cc12 (mixture of isomers) [Example 5, methyl (3R,4R)-4-[3-hydroxy-3-(6-methoxyquinolin-4-yl)propyl]-1-{[(trans)-2-phenylcyclopropyl]methyl}piperidine-3-carboxylate] |  |  |  |  |  |  |  |  | 32 | 8 | 4 | 2 | 4 | 64 | 4 | 8
4 | COc1ccc2nccc(C(O)CC[C@@H]3CCN(C4CC(c5ccccc5)C4)C[C@@H]3C(=O)O)c2c1 (single isomer, unassigned) [Example 2] | 0.4629 µg/mL (≈ 0.975 µM) | <=.0884 μg/ml | 0.125 µg/mL (≈ 0.263 µM) |  | <=.0625 μg/ml | 0.5 (≈ 1.05 µM) |  | <=.0625 μg/ml |  |  |  | 0.25 (≈ 0.527 µM) |  |  | 0.158 (≈ 0.332 µM) | 
5 | COc1ccc2nccc(C(O)CC[C@@H]3CCN(C4CC(c5ccccc5)C4)C[C@@H]3C(=O)O)c2c1 (single isomer, unassigned) [Example 3] | 1.7818 µg/mL (≈ 3.75 µM) | <=.25 μg/ml | 0.5 µg/mL (≈ 1.05 µM) | 0.25 (≈ 0.527 µM) | <=.1768 μg/ml | 4 (≈ 8.43 µM) | 0.25 (≈ 0.527 µM) | 0.5 µg/mL (≈ 1.05 µM) |  |  |  |  |  |  |  | 
6 | COc1ccc2nccc(C(O)CC[C@@H]3CCN(C4CC(c5ccccc5)C4)C[C@@H]3C(=O)O)c2c1 (single isomer, unassigned) [Example 4] | 4 µg/mL (≈ 8.43 µM) | 1 µg/mL (≈ 2.11 µM) | 0.5 µg/mL (≈ 1.05 µM) | 2 (≈ 4.21 µM) | 1 µg/mL (≈ 2.11 µM) |  | 1 (≈ 2.11 µM) | 0.5 µg/mL (≈ 1.05 µM) |  |  |  |  |  | 4 (≈ 8.43 µM) |  | 
7 | COc1ccc2nccc(C(O)CC[C@@H]3CCN(C[C@@H]4C[C@H]4c4ccccc4)C[C@@H]3C(=O)O)c2c1 (stereo partly drawn) [Example 85, (3R,4R)-4-[3-hydroxy-3-(6-methoxyquinolin-4-yl)propyl]-1-{[(tans)-2-phenylcyclopropyl]methyl}piperidine-3-carboxylic acid] | 5.6568 µg/mL (≈ 11.9 µM) | 1.4142 µg/mL (≈ 2.98 µM) | 2 µg/mL (≈ 4.21 µM) | 4 (≈ 8.43 µM) | 1.4142 µg/mL (≈ 2.98 µM) | 4 (≈ 8.43 µM) | 2 (≈ 4.21 µM) | 2 µg/mL (≈ 4.21 µM) |  |  |  |  |  |  |  | 
8 | COc1ccc2nccc([C@@H](O)CNC3(C(=O)O)CCCN(C4CC(c5ccccc5)C4)CC3)c2n1 (stereo partly drawn) [Example 159, 4-{[(2R)-2-hydroxy-2-(6-methoxy-1,5-naphthyridin-4-yl)ethyl]amino}1-(3-phenylcyclobutyl)azepane-4-carboxylic acid] |  |  |  |  |  |  |  |  |  |  | 4 (≈ 8.15 µM) |  |  | 16 (≈ 32.6 µM) |  | 4 (≈ 8.15 µM)
9 | COC(=O)C1(NC[C@H](O)c2ccnc3ccc(OC)nc23)CCCN(C2CC(c3ccccc3)C2)CC1 (stereo partly drawn) [Example 160, methyl 4-((R)-2-hydroxy-2-(6-methoxy-1,5-naphthyridin-4-yl)ethylamino)-1-(3-phenylcyclobutyl)azepane-4-carboxylate] |  |  |  |  |  |  |  |  |  |  | 2 (≈ 3.96 µM) |  |  | 4 (≈ 7.93 µM) |  | 2 (≈ 3.96 µM)

From patent US20080280879A1, “SUBSTITUTED HETEROCYCLIC DERIVATIVES AND THEIR PHARMACEUTICAL USE AND COMPOSITIONS” (priority 2007, published 2008)
